Assays:
Format in all cases: in vivo
[1] = test system: ivy-leaved morning glory (Ipomoea hederacea); test: Test G Post-Emergence Protocol; conditions: Ipomoea, post-emergence, 312 h, read-out: Morningglory, Ivy-leaved damage rating; for pest or weed control at 15.625 g/ha: 15.625 g ai/ha, evaluated after 13 days (100=total damage to plant; 0=no damage to plant); for pest or weed control at 62.5 g/ha: 62.5 g ai/ha; for pest or weed control at 62.5 g/ha / pest or weed control at 250 g/ha: evaluated after 13 days, 100=total damage to plant, 0=no damage to plant; for pest or weed control at 250 g/ha: 250 g ai/ha
Procedure, shortened: (§1)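 Foliar application was made 8 days after sowing, using an aqueous spray of the active in acetone/water (50:50) with 0.5% Tween 20, at doses of 15.625, 62.5 or 250 g/ha. Injury was assessed 13 days later, where 100 meant the plant was fully damaged.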

[2] = test system: giant foxtail (Setaria faberi); test: Test G Post-Emergence Protocol; conditions: Setaria faberi, post-emergence, 312 h, read-out: Foxtail, Giant damage rating; for pest or weed control at 15.625 g/ha: 15.625 g ai/ha, evaluated after 13 days (100=total damage to plant; 0=no damage to plant); for pest or weed control at 62.5 g/ha: 62.5 g ai/ha
Procedure, shortened: as §1

corn (Zea mays) [3] = test: Test G Post-Emergence Protocol; conditions: Zea mays, post-emergence, 312 h, read-out: Corn damage rating; for plant injury at 15.625 g/ha: 15.625 g ai/ha, evaluated after 13 days (100=total damage to plant; 0=no damage to plant); for plant injury at 62.5 g/ha: 62.5 g ai/ha; for plant injury at 62.5 g/ha / plant injury at 250 g/ha: evaluated after 13 days, 100=total damage to plant, 0=no damage to plant; for plant injury at 250 g/ha: 250 g ai/ha
Procedure, shortened: as §1

[4] = test system: barnyardgrass (Echinochloa crus-galli); test: Test G Post-Emergence Protocol; conditions: Echinochloa crus-galli, post-emergence, 312 h, read-out: Barnyardgrass damage rating; for pest or weed control at 15.625 g/ha: 15.625 g ai/ha, evaluated after 13 days (100=total damage to plant; 0=no damage to plant); for pest or weed control at 62.5 g/ha: 62.5 g ai/ha; for pest or weed control at 62.5 g/ha / pest or weed control at 250 g/ha: evaluated after 13 days, 100=total damage to plant, 0=no damage to plant; for pest or weed control at 250 g/ha: 250 g ai/ha
Procedure, shortened: as §1

[5] = test system: velvetleaf (Abutilon theophrasti); test: Test G Post-Emergence Protocol; conditions: Abutilon theophrasti, post-emergence, 312 h, read-out: Velvetleaf damage rating; for pest or weed control at 15.625 g/ha: 15.625 g ai/ha, evaluated after 13 days (100=total damage to plant; 0=no damage to plant); for pest or weed control at 62.5 g/ha: 62.5 g ai/ha; for pest or weed control at 62.5 g/ha / pest or weed control at 250 g/ha: evaluated after 13 days, 100=total damage to plant, 0=no damage to plant; for pest or weed control at 250 g/ha: 250 g ai/ha
Procedure, shortened: as §1

[6] = test system: redroot pigweed (Amaranthus retroflexus); test: Test G Post-Emergence Protocol; conditions: Amaranthus retroflexus, post-emergence, 312 h, read-out: Pigweed, Redroot damage rating; for pest or weed control at 15.625 g/ha: 15.625 g ai/ha, evaluated after 13 days (100=total damage to plant; 0=no damage to plant); for pest or weed control at 62.5 g/ha: 62.5 g ai/ha; for pest or weed control at 62.5 g/ha / pest or weed control at 250 g/ha: evaluated after 13 days, 100=total damage to plant, 0=no damage to plant; for pest or weed control at 250 g/ha: 250 g ai/ha
Procedure, shortened: as §1

[7] = test system: ivy-leaved morning glory (Ipomoea hederacea); test: Test G Pre-Emergence Protocol; conditions: Ipomoea, pre-emergence, 312 h, evaluated after 13 days; for pest or weed control at 15.625 g/ha: 15.625 g ai/ha; for pest or weed control at 15.625 g/ha / pest or weed control at 250 g/ha: read-out: Morningglory, Ivy-leaved damage rating (100=total damage to plant; 0=no damage to plant); for pest or weed control at 62.5 g/ha: 62.5 g ai/ha, 100=total damage to plant, 0=no damage to plant, read-out: Morningglory, Ivy-leaved damage rating; for pest or weed control at 250 g/ha: 250 g ai/ha
Procedure, shortened: (§2)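 Spraying took place one day after sowing, at 15.625, 62.5 or 250 g/ha, using an acetone/water (50:50) spray solution containing 0.5% Tween 20. Plants were kept under glasshouse conditions (24/16 °C, 14 h light, 65% humidity, watered twice daily), and injury was rated 0–100 at day 13.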

[8] = test system: giant foxtail (Setaria faberi); test: Test G Pre-Emergence Protocol; conditions: Setaria faberi, pre-emergence, 312 h, evaluated after 13 days; for pest or weed control at 15.625 g/ha: 15.625 g ai/ha; for pest or weed control at 15.625 g/ha / pest or weed control at 250 g/ha: read-out: Foxtail, Giant damage rating (100=total damage to plant; 0=no damage to plant); for pest or weed control at 62.5 g/ha: 62.5 g ai/ha, 100=total damage to plant, 0=no damage to plant, read-out: Foxtail, Giant damage rating; for pest or weed control at 250 g/ha: 250 g ai/ha
Procedure, shortened: as §2

corn (Zea mays) [9] = test: Test G Pre-Emergence Protocol; conditions: Zea mays, pre-emergence, 312 h, evaluated after 13 days; for plant injury at 15.625 g/ha: 15.625 g ai/ha; for plant injury at 15.625 g/ha / plant injury at 250 g/ha: read-out: Corn damage rating (100=total damage to plant; 0=no damage to plant); for plant injury at 62.5 g/ha: 62.5 g ai/ha, 100=total damage to plant, 0=no damage to plant, read-out: Corn damage rating; for plant injury at 250 g/ha: 250 g ai/ha
Procedure, shortened: as §2

[10] = test system: barnyardgrass (Echinochloa crus-galli); test: Test G Pre-Emergence Protocol; conditions: Echinochloa crus-galli, pre-emergence, 312 h, evaluated after 13 days; for pest or weed control at 15.625 g/ha: 15.625 g ai/ha; for pest or weed control at 15.625 g/ha / pest or weed control at 250 g/ha: read-out: Barnyardgrass damage rating (100=total damage to plant; 0=no damage to plant); for pest or weed control at 62.5 g/ha: 62.5 g ai/ha, 100=total damage to plant, 0=no damage to plant, read-out: Barnyardgrass damage rating; for pest or weed control at 250 g/ha: 250 g ai/ha
Procedure, shortened: as §2

[11] = test system: velvetleaf (Abutilon theophrasti); test: Test G Pre-Emergence Protocol; conditions: Abutilon theophrasti, pre-emergence, 312 h, evaluated after 13 days; for pest or weed control at 15.625 g/ha: 15.625 g ai/ha; for pest or weed control at 15.625 g/ha / pest or weed control at 250 g/ha: read-out: Velvetleaf damage rating (100=total damage to plant; 0=no damage to plant); for pest or weed control at 62.5 g/ha: 62.5 g ai/ha, 100=total damage to plant, 0=no damage to plant, read-out: Velvetleaf damage rating; for pest or weed control at 250 g/ha: 250 g ai/ha
Procedure, shortened: as §2

[12] = test system: redroot pigweed (Amaranthus retroflexus); test: Test G Pre-Emergence Protocol; conditions: Amaranthus retroflexus, pre-emergence, 312 h, evaluated after 13 days; for pest or weed control at 15.625 g/ha: 15.625 g ai/ha; for pest or weed control at 15.625 g/ha / pest or weed control at 250 g/ha: read-out: Pigweed, Redroot damage rating (100=total damage to plant; 0=no damage to plant); for pest or weed control at 62.5 g/ha: 62.5 g ai/ha, 100=total damage to plant, 0=no damage to plant, read-out: Pigweed, Redroot damage rating; for pest or weed control at 250 g/ha: 250 g ai/ha
Procedure, shortened: as §2

[13] = evaluated after 13 days, 100=total damage to plant, 0=no damage to plant

Structure (SMILES)	pest or weed control at 15.625 g/ha [1]	pest or weed control at 62.5 g/ha [1]	pest or weed control at 250 g/ha [1]	pest or weed control at 15.625 g/ha [2]	pest or weed control at 62.5 g/ha [2, 13]	plant injury at 15.625 g/ha (corn (Zea mays) [3])	plant injury at 62.5 g/ha (corn (Zea mays) [3])	plant injury at 250 g/ha (corn (Zea mays) [3])	pest or weed control at 15.625 g/ha [4]	pest or weed control at 62.5 g/ha [4]	pest or weed control at 250 g/ha [4]	pest or weed control at 15.625 g/ha [5]	pest or weed control at 62.5 g/ha [5]	pest or weed control at 250 g/ha [5]	pest or weed control at 15.625 g/ha [6]	pest or weed control at 62.5 g/ha [6]	pest or weed control at 250 g/ha [6]	pest or weed control at 15.625 g/ha [7]	pest or weed control at 62.5 g/ha [7]	pest or weed control at 250 g/ha [7]	other results
CN1C[C@H](c2ccc(F)c(F)c2)[C@@H](C(=O)Nc2cnccc2C(F)(F)F)C1=O (racemic) [Compound 1740]	0%	0%	20%	0%	40%	0%	0%	0%	0%	0%	20%	0%	0%	10%	0%	0%	0%	0%	0%	0%	pest or weed control at 15.625 g/ha [8]: 0%; pest or weed control at 62.5 g/ha [8]: 60%; pest or weed control at 250 g/ha [8]: 90%; plant injury at 15.625 g/ha (corn (Zea mays) [9]): 0%; plant injury at 62.5 g/ha (corn (Zea mays) [9]): 0%; plant injury at 250 g/ha (corn (Zea mays) [9]): 10%; pest or weed control at 15.625 g/ha [10]: 0%; pest or weed control at 62.5 g/ha [10]: 30%; pest or weed control at 250 g/ha [10]: 40%; pest or weed control at 15.625 g/ha [11]: 0%; pest or weed control at 62.5 g/ha [11]: 0%; pest or weed control at 250 g/ha [11]: 50%; pest or weed control at 15.625 g/ha [12]: 0%; pest or weed control at 62.5 g/ha [12]: 0%; pest or weed control at 250 g/ha [12]: 40%
CN1C[C@H](c2cccc(C(F)F)c2)[C@@H](C(=O)Nc2cnccc2C(F)(F)F)C1=O (racemic) [Compound 1742]	0%	0%	40%	70%	80%	0%	0%	70%	0%	70%	80%	0%	10%	20%	0%	20%	30%	0%	0%	10%	pest or weed control at 250 g/ha ([2]; 250 g ai/ha, evaluated after 13 days, 100=total damage to plant, 0=no damage to plant): 80%; pest or weed control at 15.625 g/ha [8]: 50%; pest or weed control at 62.5 g/ha [8]: 80%; pest or weed control at 250 g/ha [8]: 90%; plant injury at 15.625 g/ha (corn (Zea mays) [9]): 0%; plant injury at 62.5 g/ha (corn (Zea mays) [9]): 0%; plant injury at 250 g/ha (corn (Zea mays) [9]): 30%; pest or weed control at 15.625 g/ha [10]: 0%; pest or weed control at 62.5 g/ha [10]: 0%; pest or weed control at 250 g/ha [10]: 80%; pest or weed control at 15.625 g/ha [11]: 0%; pest or weed control at 62.5 g/ha [11]: 0%; pest or weed control at 250 g/ha [11]: 30%; pest or weed control at 15.625 g/ha [12]: 0%; pest or weed control at 62.5 g/ha [12]: 10%; pest or weed control at 250 g/ha [12]: 20%

Reference: patent publication US12077503B2, “Substituted cyclic amides and their use as herbicides” (FMC CORPORATION, priority 2015, dated 2024)
